Measurements published in PubChem BioAssay (NCI).
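Values below derive from 48-hour exposures of cells grown in 96-well plates, with endpoints linearly interpolated between the two concentrations bracketing the appropriate inhibition level. TGI: concentration producing complete growth inhibition.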

Columns and labels:
Experiment in all cases: NCI anticancer screen, dose series, 48 h
MALME-3M melanoma = tested on: MALME-3M melanoma
UACC-257 melanoma = tested on: UACC-257 melanoma
SF-539 CNS = tested on: SF-539 CNS
NCI-H23 lung = tested on: NCI-H23 lung
TK-10 renal = tested on: TK-10 renal
SNB-75 CNS = tested on: SNB-75 CNS
SF-268 CNS = tested on: SF-268 CNS
BT-549 breast = tested on: BT-549 breast
EKVX NSCLC = tested on: EKVX NSCLC
COLO 205 colon = tested on: COLO 205 colon
NCI-H460 lung = tested on: NCI-H460 lung
786-0 renal = tested on: 786-0 renal
A498 renal = tested on: A498 renal
K-562 leukemia = tested on: K-562 leukemia
CCRF-CEM leukemia = tested on: CCRF-CEM leukemia
SK-MEL-28 melanoma = tested on: SK-MEL-28 melanoma
A549 NSCLC = tested on: A549 NSCLC
RXF 393 renal = tested on: RXF 393 renal
OVCAR-3 ovarian = tested on: OVCAR-3 ovarian
SNB-19 CNS = tested on: SNB-19 CNS
OVCAR-5 ovarian = tested on: OVCAR-5 ovarian
OVCAR-8 ovarian = tested on: OVCAR-8 ovarian
T-47D breast = tested on: T-47D breast
DU-145 prostate = tested on: DU-145 prostate
HOP-62 NSCLC = tested on: HOP-62 NSCLC
MDA-MB-435 = tested on: MDA-MB-435
NCI-H522 lung = tested on: NCI-H522 lung
MDA-MB-231 breast = tested on: MDA-MB-231 breast
ACHN renal = tested on: ACHN renal
SR leukemia = tested on: SR leukemia
HCT-116 colon = tested on: HCT-116 colon
MCF7 breast = tested on: MCF7 breast
HCT-15 colon = tested on: HCT-15 colon
NCI-H226 lung = tested on: NCI-H226 lung
NCI/ADR-RES ovarian = tested on: NCI/ADR-RES ovarian
SK-OV-3 ovarian = tested on: SK-OV-3 ovarian
M14 melanoma = tested on: M14 melanoma
HT29 colon = tested on: HT29 colon
SK-MEL-2 melanoma = tested on: SK-MEL-2 melanoma
HCC-2998 colon = tested on: HCC-2998 colon
OVCAR-4 ovarian = tested on: OVCAR-4 ovarian
UACC-62 melanoma = tested on: UACC-62 melanoma
MDA-N = tested on: MDA-N
U251 CNS = tested on: U251 CNS
SN12C renal = tested on: SN12C renal
SK-MEL-5 melanoma = tested on: SK-MEL-5 melanoma
PC-3 prostate = tested on: PC-3 prostate
UO-31 renal = tested on: UO-31 renal
HS 578T breast = tested on: HS 578T breast
SW-620 colon = tested on: SW-620 colon
MOLT-4 leukemia = tested on: MOLT-4 leukemia
HOP-92 NSCLC = tested on: HOP-92 NSCLC
KM12 colon = tested on: KM12 colon
IGROV1 ovarian = tested on: IGROV1 ovarian
CAKI-1 renal = tested on: CAKI-1 renal

COc1cc(Cc2cnc(N)nc2N)cc(OC)c1OCCCNc1ccc([N+](=O)[O-])cc1
TGI (MALME-3M melanoma): 25.8 µM
TGI (UACC-257 melanoma): 25.9 µM
TGI (SF-539 CNS): 26.1 µM
TGI (NCI-H23 lung): 31.8 µM
TGI (TK-10 renal): 32.7 µM
TGI (SNB-75 CNS): 32.7 µM
TGI (SF-268 CNS): 74 µM
TGI (BT-549 breast): 31.1 µM
TGI (EKVX NSCLC): 32 µM
TGI (COLO 205 colon): 27.4 µM
TGI (NCI-H460 lung): 26 µM
TGI (786-0 renal): 28 µM
TGI (A498 renal): 39.3 µM
TGI (K-562 leukemia): > 100 µM
TGI (CCRF-CEM leukemia): 35.2 µM
TGI (SK-MEL-28 melanoma): 27.1 µM
TGI (A549 NSCLC): 35.2 µM
TGI (RXF 393 renal): 25.2 µM
TGI (OVCAR-3 ovarian): 28.1 µM
TGI (SNB-19 CNS): 27 µM
TGI (OVCAR-5 ovarian): 35.5 µM
TGI (OVCAR-8 ovarian): 30.1 µM
TGI (T-47D breast): 25.3 µM
TGI (DU-145 prostate): 30.2 µM
TGI (HOP-62 NSCLC): 27.4 µM
TGI (MDA-MB-435): 29.8 µM
TGI (NCI-H522 lung): 26.3 µM
TGI (MDA-MB-231 breast): 27.5 µM
TGI (ACHN renal): 37.8 µM
TGI (SR leukemia): 24.3 µM
TGI (HCT-116 colon): 30.4 µM
TGI (MCF7 breast): 26.5 µM
TGI (HCT-15 colon): 37.8 µM
TGI (NCI-H226 lung): 28.4 µM
TGI (NCI/ADR-RES ovarian): 60 µM
TGI (SK-OV-3 ovarian): 66.6 µM
TGI (M14 melanoma): 19.2 µM
TGI (HT29 colon): 14.8 µM
TGI (SK-MEL-2 melanoma): 29.5 µM
TGI (HCC-2998 colon): 31.4 µM
TGI (OVCAR-4 ovarian): 33.6 µM
TGI (UACC-62 melanoma): 26.7 µM
TGI (MDA-N): 32.9 µM
TGI (U251 CNS): 29.2 µM
TGI (SN12C renal): 41.4 µM
TGI (SK-MEL-5 melanoma): 18.9 µM
TGI (PC-3 prostate): 22.3 µM
TGI (UO-31 renal): 26.5 µM
TGI (HS 578T breast): > 100 µM
TGI (SW-620 colon): 34.2 µM
TGI (MOLT-4 leukemia): 8.66 µM
TGI (HOP-92 NSCLC): 36.4 µM
TGI (KM12 colon): 32.2 µM
TGI (IGROV1 ovarian): 28.3 µM
TGI (CAKI-1 renal): > 100 µM
